PubChem BioAssay (NCI)
Where “and” joins values, the source holds several entries; their conditions need not be identical. Equal entries are not always repeated.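 Interpolation was linear, between the two tested concentrations surrounding the appropriate level; five concentrations were tested over 48 hours in 96-well plates. GI50: concentration for 50% inhibition of growth. The concentration for full growth arrest is given as TGI.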

Experiments:
Experiment in all cases: DTP human tumour cell line panel, 48 h
[1] = test system: 786-0 renal
[2] = test system: A498 renal
[3] = test system: A549 NSCLC
[4] = test system: ACHN renal
[5] = test system: BT-549 breast
[6] = test system: CAKI-1 renal
[7] = test system: CCRF-CEM leukemia
[8] = test system: COLO 205 colon
[9] = test system: DU-145 prostate
[10] = test system: EKVX NSCLC
[11] = test system: HCC-2998 colon
[12] = test system: HCT-116 colon
[13] = test system: HCT-15 colon
[14] = test system: HL-60(TB) leukemia
[15] = test system: HOP-62 NSCLC
[16] = test system: HOP-92 NSCLC
[17] = test system: HS 578T breast
[18] = test system: HT29 colon
[19] = test system: IGROV1 ovarian
[20] = test system: K-562 leukemia
[21] = test system: KM12 colon
[22] = test system: LOX IMVI melanoma
[23] = test system: M14 melanoma
[24] = test system: MALME-3M melanoma
[25] = test system: MCF7 breast
[26] = test system: MDA-MB-231 breast
[27] = test system: MDA-MB-435
[28] = test system: MOLT-4 leukemia
[29] = test system: NCI-H226 lung
[30] = test system: NCI-H23 lung
[31] = test system: NCI-H460 lung
[32] = test system: NCI-H522 lung
[33] = test system: NCI/ADR-RES ovarian
[34] = test system: OVCAR-3 ovarian
[35] = test system: OVCAR-4 ovarian
[36] = test system: OVCAR-5 ovarian
[37] = test system: OVCAR-8 ovarian
[38] = test system: PC-3 prostate
[39] = test system: RPMI-8226 leukemia
[40] = test system: RXF 393 renal
[41] = test system: SF-268 CNS
[42] = test system: SF-295 CNS
[43] = test system: SF-539 CNS
[44] = test system: SK-MEL-2 melanoma
[45] = test system: SK-MEL-28 melanoma
[46] = test system: SK-MEL-5 melanoma
[47] = test system: SK-OV-3 ovarian
[48] = test system: SN12C renal
[49] = test system: SNB-19 CNS
[50] = test system: SNB-75 CNS
[51] = test system: SR leukemia
[52] = test system: SW-620 colon
[53] = test system: T-47D breast
[54] = test system: TK-10 renal
[55] = test system: U251 CNS
[56] = test system: UACC-257 melanoma
[57] = test system: UACC-62 melanoma
[58] = test system: UO-31 renal
[59] = test system: MDA-N

Cc1sc2c(c1C)C(c1ccc(Cl)cc1)=N[C@@H](CC(=O)OC(C)(C)C)c1nnc(C)n1-2
GI50 [1]: 0.605 µM and 0.841 µM | TGI [1]: 19.9 µM and 18.9 µM | GI50 [2]: 0.267 µM and 0.0617 µM | TGI [2]: 1.46 µM and 1.15 µM | GI50 [3]: 0.73 µM and 0.312 µM | TGI [3]: 21.8 µM and 15.3 µM | GI50 [4]: 0.67 µM and 0.496 µM | TGI [4]: 18.3 µM and 15.8 µM | GI50 [5]: 1.15 µM and 3.1 µM | TGI [5]: 20.8 µM and 20 µM | GI50 [6]: 0.0513 µM and 0.0532 µM | TGI [6]: 18.2 µM and 15.1 µM | GI50 [7]: 0.644 µM and 0.773 µM | TGI [7]: 23 µM and 22.9 µM | GI50 [8]: 0.378 µM and 0.143 µM | TGI [8]: 11.7 µM and 3.8 µM | GI50 [9]: 13.4 µM and 8.51 µM | TGI [9]: 33.3 µM and 22.1 µM | GI50 [10]: 3.17 µM and 1.18 µM | TGI [10]: 20.5 µM and 18.2 µM | GI50 [11]: 0.379 µM and 0.291 µM | TGI [11]: 13.8 µM and 14 µM | GI50 [12]: 0.44 µM and 0.311 µM | TGI [12]: 16.4 µM and 15.4 µM | GI50 [13]: 0.308 µM and 0.157 µM | TGI [13]: 13.4 µM and 13.7 µM | GI50 [14]: 0.118 µM and 0.0301 µM | GI50 [15]: 0.253 µM and 0.121 µM | TGI [15]: 17.1 µM and 16.4 µM | GI50 [16]: 0.0319 µM and 0.0183 µM | TGI [16]: 0.39 µM and 0.29 µM | GI50 [17]: 0.139 µM and 0.0567 µM | TGI [17]: 18.4 µM and 18.1 µM | GI50 [18]: 0.209 µM and 0.0986 µM | TGI [18]: 14.9 µM | GI50 [19]: 0.808 µM and 0.645 µM | TGI [19]: 25 µM and 18.9 µM | TGI [20]: 37.5 µM and 15.7 µM | GI50 [21]: 2.57 µM and 0.962 µM | TGI [21]: 23.1 µM and 20.1 µM | GI50 [22]: 0.22 µM and 0.0673 µM | TGI [22]: 11.2 µM and 13.9 µM | GI50 [23]: 0.436 µM and 0.772 µM | TGI [23]: 19.6 µM and 21.7 µM | GI50 [24]: 11.4 µM and 4.84 µM | TGI [24]: 26.4 µM and 22.1 µM | GI50 [25]: 0.117 µM and 0.06 µM | TGI [25]: 17.9 µM and 13.6 µM | GI50 [26]: 0.714 µM and 0.304 µM | TGI [26]: 26 µM and 18.5 µM | GI50 [27]: 0.348 µM and 0.135 µM | TGI [27]: 20.3 µM and 17 µM | GI50 [28]: 1.61 µM and 1.81 µM | TGI [28]: 23 µM and 17.8 µM | GI50 [29]: 2.81 µM and 10.3 µM | TGI [29]: 22 µM and 22.8 µM | GI50 [30]: 0.45 µM and 0.28 µM | TGI [30]: 18.7 µM and 18.6 µM | GI50 [31]: 1.55 µM and 0.603 µM | TGI [31]: 22.6 µM and 19 µM | GI50 [32]: 0.179 µM and 0.0566 µM | TGI [32]: 7.38 µM and 11.6 µM | GI50 [33]: 0.506 µM and 0.396 µM | TGI [33]: 24 µM and 20.9 µM | GI50 [34]: 1.24 µM and 0.498 µM | TGI [34]: 18 µM and 15.6 µM | GI50 [35]: 0.123 µM and 0.15 µM | TGI [35]: 17.2 µM and 16.1 µM | GI50 [36]: 11.9 µM and 10.4 µM | TGI [36]: 25 µM and 22.7 µM | GI50 [37]: 0.875 µM and 0.62 µM | TGI [37]: 26.8 µM and 20.5 µM | GI50 [38]: 1.58 µM and 1.08 µM | TGI [38]: 24.6 µM and 16.7 µM | GI50 [39]: 0.142 µM and 0.0397 µM | TGI [39]: 2.92 µM and 0.477 µM | GI50 [40]: 1.95 µM and 0.737 µM | TGI [40]: 19 µM and 9.28 µM | GI50 [41]: 11.5 µM and 4.73 µM | TGI [41]: 26.2 µM and 21.8 µM | GI50 [42]: 0.365 µM and 0.182 µM | TGI [42]: 18.2 µM and 15.5 µM | GI50 [43]: 0.639 µM and 0.462 µM | TGI [43]: 19.4 µM and 17.9 µM | GI50 [44]: 5.51 µM and 5.34 µM | TGI [44]: 21.8 µM and 22.5 µM | GI50 [45]: 1.98 µM and 0.397 µM | TGI [45]: 20.2 µM and 15.2 µM | GI50 [46]: 0.0966 µM and 0.337 µM | TGI [46]: 4.27 µM and 14.2 µM | GI50 [47]: 0.756 µM and 0.326 µM | TGI [47]: 19.4 µM and 15.6 µM | GI50 [48]: 8.65 µM and 1.95 µM | TGI [48]: 25.9 µM and 22 µM | GI50 [49]: 0.629 µM and 0.421 µM | TGI [49]: > 47.2 µM and 18.9 µM | GI50 [50]: 0.0325 µM and 0.025 µM | GI50 [51]: 0.229 µM and 0.0451 µM | TGI [51]: 18.7 µM and 17.1 µM | GI50 [52]: 10.9 µM and 4.09 µM | TGI [52]: 28.1 µM and 22.9 µM | GI50 [53]: 0.342 µM and 0.214 µM | TGI [53]: 18.8 µM and 19 µM | GI50 [54]: 0.154 µM and 0.0583 µM | TGI [54]: 12.7 µM and 13.4 µM | GI50 [55]: 2.45 µM and 1.24 µM | TGI [55]: 20.6 µM and 19 µM | GI50 [56]: 0.313 µM and 0.146 µM | TGI [56]: 19.5 µM and 17 µM | GI50 [57]: 0.107 µM and 0.0685 µM | TGI [57]: 20.3 µM and 15.8 µM | GI50 [58]: 0.0634 µM and 0.0301 µM | TGI [58]: 13.8 µM and 14.2 µM

NNC(=O)c1nnn(CCc2ccccc2)c1C(=O)NN
TGI [1]: > 100 µM | TGI [3]: > 100 µM | TGI [4]: > 100 µM | TGI [5]: > 100 µM | TGI [6]: > 100 µM | TGI [7]: > 100 µM | TGI [8]: > 100 µM | TGI [9]: > 100 µM | TGI [10]: > 100 µM | TGI [11]: > 100 µM | TGI [12]: > 100 µM | TGI [13]: > 100 µM | TGI [14]: > 100 µM | TGI [15]: > 100 µM | TGI [18]: > 100 µM | TGI [20]: > 100 µM | TGI [21]: > 100 µM | TGI [22]: > 100 µM | TGI [23]: > 100 µM | TGI [24]: > 100 µM | TGI [25]: > 100 µM | TGI [26]: > 100 µM | TGI [27]: > 100 µM | TGI [59]: > 100 µM | TGI [28]: > 100 µM | TGI [30]: > 100 µM | TGI [31]: > 100 µM | TGI [33]: > 100 µM | TGI [34]: > 100 µM | TGI [35]: > 100 µM | TGI [36]: > 100 µM | TGI [37]: > 100 µM | TGI [38]: > 100 µM | TGI [39]: > 100 µM | TGI [42]: > 100 µM | TGI [44]: > 100 µM | TGI [45]: > 100 µM | TGI [46]: > 100 µM | TGI [48]: > 100 µM | TGI [49]: > 100 µM | TGI [51]: > 100 µM | TGI [54]: > 100 µM | TGI [55]: > 100 µM | TGI [56]: > 100 µM | TGI [58]: > 100 µM
